Here are results for one substance from patent US20230285512A1, “COMPOSITIONS AND METHODS FOR TREATING MYOCARDIAL INFARCTION AND ISCHEMIA” (priority 2022, published 2023).

“Also recorded” adds a separate entry of the source.

The subject of this data set is HL-1 cardiomyocytes. In words: In vitro hypoxia assay of HL-1 cardiomyocytes, live/dead. The class given is cell-based. As to the method:
To examine potential functional roles of these candidates, particularly on cellular apoptosis, the study next used an in vitro hypoxia assay of HL-1 CMs, in which cells were exposed to low oxygen (1%02) for 6 hours prior to treatment with recombinant forms of these proteins.
HL-1 cardiomyocytes (Sigma, cat. SCC065) were maintained in growth media consisting of 10% FBS in Claycomb Media (Sigma, cat. 51800C) supplemented with 10 mM norepinephrine (Sigma, cat. A0937) and […] L-glutamine (Gibco, cat. 25030081). Primary cardiac fibroblasts were isolated from Col1a1GFP/+ mice 2 months of age. Mice were injected with heparin prior to sacrifice and the heart collected. The tissue was then cut into 1-2 mm pieces and digested with Liberase Blendzyme TH and TM (Roche, cat. LIBTM-RO) in Hank's Balanced Salt Solution (HBSS) (Gibco, cat. 1417507) supplemented with DNAse I and polaxamer (10 mg/ml, Sigma, cat. 16758) in 37° C. for 1 h. […]
Fluorescent images were acquired with Leica fluorescence inverted microscope DMI6000B equipped with an EL6000 light source. […] Image quantification was performed using Imager s “threshold” and “analyze particles” functions. Assessment of live/dead was determined as the number of DAPI+ cells/HPF. EdU and pHH3 quantification were recorded as the number of EdU+ or pHH3+ nuclei over the total number of DAPI.

As to “thymosin β4: Thymosin family protein Tmsb4x, recombinant form; human reference NP_066932 in Table 1”, for the setting “1% O2 for 6 hours prior to treatment with recombinant protein”, the “number of DAPI+ (dead) cells per field” value is “reduced; also recorded: protective role”. The “cellular viability / toxicity” value (high doses (500 nM)) is given as “cellular toxicity”.
